From publication PMC5107130 (Pharmacological Research, 2016)
Entries after “also recorded” stand apart in the source; their conditions may differ. Like-named read-outs stand apart in the source and are kept apart here.

Key:
HCT116 cells [1] = assay: Mitochondrial function, MTT assay; format: cell-based, human; details: 48 h
HCT116 cells [2] = assay: Cell proliferation, xCELLigence system; format: cell-based, human; details: Cell Index, 48 h, concentration in the value
HCT116 cells [3] = assay: Cytotoxicity, lactate dehydrogenase; format: cell-based, human; details: 48 h
[4] = target: T1, Recombinant full length human CBS (Homo sapiens, UniProt P35520); assay: AzMC fluorescence assay of CBS-derived H2S production; format: biochemical; details: for % inhibition of CBS-induced AzMC fluorescence: copper compounds, mean ± SEM, n = 3
T1 sequence (P35520 1-551): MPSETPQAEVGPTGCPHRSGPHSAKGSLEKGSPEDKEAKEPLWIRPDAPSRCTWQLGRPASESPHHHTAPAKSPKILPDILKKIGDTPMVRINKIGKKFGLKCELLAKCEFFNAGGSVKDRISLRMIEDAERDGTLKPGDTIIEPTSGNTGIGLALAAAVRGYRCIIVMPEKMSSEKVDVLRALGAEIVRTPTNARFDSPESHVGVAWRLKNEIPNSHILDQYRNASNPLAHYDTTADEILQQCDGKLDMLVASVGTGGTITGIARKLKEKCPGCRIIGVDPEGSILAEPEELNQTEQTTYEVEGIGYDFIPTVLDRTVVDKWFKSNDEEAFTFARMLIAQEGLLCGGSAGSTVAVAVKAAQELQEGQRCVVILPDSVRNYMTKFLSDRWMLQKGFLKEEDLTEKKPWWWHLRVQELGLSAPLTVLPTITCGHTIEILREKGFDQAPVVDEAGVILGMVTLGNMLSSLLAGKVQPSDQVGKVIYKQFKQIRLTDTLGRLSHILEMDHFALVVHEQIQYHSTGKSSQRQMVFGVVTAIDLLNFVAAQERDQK

[5] = Counterscreen: AzMC fluorescence signal generated by the H2S donor GYY4137
CBS = details: cited from earlier work; for % inhibition of CBS activity: 1 mM
CSE = details: cited from earlier work
[6] = target: T1, Recombinant full length human CBS; assay: Methylene blue assay of CBS-derived H2S; format: biochemical; details: read-out: % inhibition of CBS-induced methylene blue signal
[7] = read-out: % inhibition of CBS-induced AzMC fluorescence

## NNCc1ccc(O)c(O)c1O [2,3,4-trihydroxybenzylhydrazine]
HCT116 cells [1]
  MTT conversion in HCT116 cells: reduced MTT conversion at 300 μM
HCT116 cells [2]
  Effect on HCT116 cell proliferation (words): inhibited HCT116 cell proliferation in vitro at 10–300 μM
HCT116 cells [3]
  Cytotoxicity / LDH release in HCT116 cells: did not exert cytotoxic effects
[4]; read-out: % inhibition of recombinant CBS activity, 30 μM, standard assay conditions
  inhibition at 30 µM: 51 ± 2%
[4]; read-out: % inhibition of recombinant CBS activity, 100 μM, standard assay conditions, freshly dissolved
  inhibition at 100 µM: 82%

## [Cl][Cu][Cl] [CuCl2, copper(II) chloride]
HCT116 cells [1]
  MTT conversion in HCT116 cells: decreased MTT conversion
HCT116 cells [2]
  Effect on HCT116 cell proliferation (words): only inhibited HCT116 cells proliferation at the highest concentration tested (1 mM)
HCT116 cells [2]; listed as copper ions
  Effect on HCT116 cell proliferation (words): up to 300 μM, did not inhibit HCT116 cell proliferation
[5]; copper compounds, 0.1 μM, mean ± SEM, n = 3
  % inhibition of GYY4137-induced AzMC fluorescence: 1 ± 1%
[5]; copper compounds, 0.3 μM, mean ± SEM, n = 3
  % inhibition of GYY4137-induced AzMC fluorescence: 10 ± 1%
[5]; copper compounds, 1 μM, mean ± SEM, n = 3
  % inhibition of GYY4137-induced AzMC fluorescence: 14 ± 1%
HCT116 cells [3]
  Cytotoxicity / LDH release in HCT116 cells: paradoxical reduction in LDH activity
[4]; 0.1 μM
  % inhibition of CBS-induced AzMC fluorescence: 36 ± 1%
[4]; 0.3 μM
  % inhibition of CBS-induced AzMC fluorescence: 60 ± 2%
[4]; 1 μM
  % inhibition of CBS-induced AzMC fluorescence: 90 ± 1%
[4]; read-out: IC50, inhibition of recombinant CBS (CBS-induced AzMC fluorescence), cell-free, 2 mM L-cysteine and homocysteine
  IC50: ~0.2 µM

## N[C@@H]1CON=C1O [D-cycloserine]
CBS
  % inhibition of CBS activity: 15–20%

## Cn1ncnc2c(=O)n(C)c(=O)nc1-2 [NSC67078, 1,6-dimethyl-pyrimido[5,4-e]-1,2,4-triazine-5,7(1H,6H)-dione]
CSE
  Potency of CSE inhibition relative to CBS inhibition (fold lower): 3 fold
HCT116 cells [1]
  MTT conversion in HCT116 cells: suppression of MTT conversion
[5]; 1 μM, mean ± SEM, n = 3
  % inhibition of GYY4137-induced AzMC fluorescence: 25 ± 1%
[5]; 10 μM, mean ± SEM, n = 3
  % inhibition of GYY4137-induced AzMC fluorescence: 65 ± 1%
[5]; 30 μM, mean ± SEM, n = 3
  % inhibition of GYY4137-induced AzMC fluorescence: 78 ± 1%
[5]; read-out: IC50, inhibition of GYY4137-induced AzMC fluorescence, scavenging/non-specific effects
  IC50: ~6 µM
[6]
  inhibition at 1 µM: 59 ± 2%
  inhibition at 10 µM: 73 ± 1%
  inhibition at 30 µM: 95 ± 1%
[4]
  IC50: ~1 µM
[4]; [7]
  inhibition at 1 µM: 47 ± 1%
  inhibition at 10 µM: 88 ± 1%
  inhibition at 30 µM: 93 ± 1%

## C#CCC(N)C(=O)O (centres unmarked) [PAG]
CBS
  CBS inhibition: is not an inhibitor of CBS

## O=C(OC[C@H]1O[C@@H](OC(=O)c2cc(O)c(O)c(OC(=O)c3cc(O)c(O)c(O)c3)c2)[C@H](OC(=O)c2cc(O)c(O)c(OC(=O)c3cc(O)c(O)c(O)c3)c2)[C@@H](OC(=O)c2cc(O)c(O)c(OC(=O)c3cc(O)c(O)c(O)c3)c2)[C@@H]1OC(=O)c1cc(O)c(O)c(OC(=O)c2cc(O)c(O)c(O)c2)c1)c1cc(O)c(O)c(OC(=O)c2cc(O)c(O)c(O)c2)c1 [Tannic acid, 2,3-dihydroxy-5-({[(2R,3R,4S,5R,6R)-3,4,5,6-tetrakis({3,4-dihydroxy-5-[(3,4,5-trihydroxyphenyl)carbonyloxy]phenyl}carbonyloxy)oxan-2-yl]methoxy}carbonyl)phenyl 3,4,5-trihydroxybenzoate]
HCT116 cells [2]
  Effect on HCT116 cell proliferation (words): concentration-dependently inhibited proliferation, starting with 10 μM; also recorded: complete inhibition was seen at 100 μM
[5]; 10 μM, mean ± SEM, n = 3
  % inhibition of GYY4137-induced AzMC fluorescence: −1 ± 1%
[5]; 30 μM, mean ± SEM, n = 3
  % inhibition of GYY4137-induced AzMC fluorescence: 3 ± 2%
  Confirmation (% inhibition of GYY4137-induced AzMC fluorescence): 3 ± 2%
[5]; 100 μM, mean ± SEM, n = 3
  % inhibition of GYY4137-induced AzMC fluorescence: 8 ± 3%
HCT116 cells [3]
  Cytotoxicity / LDH release in HCT116 cells: without signs of cytotoxicity
[6]
  inhibition at 10 µM: 24 ± 9%
  inhibition at 30 µM: 46 ± 3%
  inhibition at 100 µM: 56 ± 3%
[4]
  IC50: ~40 µM
[4]; read-out: % inhibition of CBS-induced AzMC fluorescence, 10 μM, mean ± SEM, n = 3
  inhibition at 10 µM: 28 ± 2%
[4]; read-out: % inhibition of CBS-induced AzMC fluorescence, 30 μM, mean ± SEM, n = 3
  inhibition at 30 µM: 43 ± 1%
[4]; read-out: % inhibition of CBS-induced AzMC fluorescence, 100 μM, mean ± SEM, n = 3
  inhibition at 100 µM: 75 ± 1%
[4]; read-out: Confirmation (% inhibition of CBS-induced AzMC fluorescence), 30 μM, mean ± SEM, n = 3
  inhibition at 30 µM: 43 ± 1%
[4]; read-out: Initial screen (% inhibition of CBS-induced AzMC fluorescence), 30 μM
  inhibition at 30 µM: 73%

## NNC(=O)c1ccncc1 [isoniazid]
CBS
  % inhibition of CBS activity: 15–20%
